Experimental findings from patent publication US5912248A, “Excitatory amino acid receptor antagonists” (Eli Lilly and Company, priority 1996, dated 1999) are described below.

In this assay the test system is metabotropic glutamate receptors. Nature of the assay: displacement of 1S,3R-ACPD-sensitive [^3 H]glutamate binding to rat brain cell membranes. The conditions noted are these: crude membranes of rat forebrain. How it is done: The binding of [^3 H]glutamate was conducted with crude membranes of rat forebrain as described by Schoepp and True, Neuroscience Lett., 145, 100-104 (1992) and Wright et al., J. Neurochemistry 63, 938-945, 1994.

The IC50 is the point on the concentration scale where inhibition reaches its midpoint. A high value points to weaker potency in that assay.

`NC1(C(=O)O)CC(Sc2ccccc2)C2C(C(=O)O)C21` (stereo not drawn) [Example 1, 1SR,2RS,4SR,5SR,6SR-2-Amino-4-(phenylthio)bicyclo[3.1.0]hexane-2,6-dicarboxylic acid] gave an IC50 of 242 nM.

Consider `NC1(C(=O)O)CC(SCc2ccco2)C2C(C(=O)O)C21` (stereo not drawn) [Example 8, 1SR,2RS,4RS,5SR,6SR-2-Amino-4-((2-furanylmethyl)thio)bicyclo[3.1.0]hexane-2,6-dicarboxylic acid], for which the “activity in the binding test (in words)” value was “essentially inactive”.
